Assay results: patent US4656036A, “Antibiotics Tejeramycin and production thereof” (Merck & Co., Inc., priority 1985, dated 1987)

Tested on: Pseudomonas aeruginosa MB 2835
Assay: In vivo activity against Pseudomonas aeruginosa MB 2835 systemic infections in mice (Table X)
Parameters: species or system Pseudomonas aeruginosa; CD 1 female mice
Conditions: for s.c./i.p. ED50 administration ratio: 10080 min; for ED50 i.p.: i.p. at 0 and 6 hours after infection; for ED50 i.p. / ED50 s.c.: multiplied by two doses, 7 days observation; for ED50 s.c.: s.c. at 0 and 6 hours after infection
Procedure: The in vivo activities of Tejeramycin, components A through G were determined against Pseudomonas aeruginosa MB 2835 infections in mice. Experimental systemic infections were produced in CD 1 female mice (Charles River Breeding Labs., Wilmington, Ma.), average body weight 19-22 grams, by the intraperitoneal (i.p.) injection of a suitably diluted overnight culture of Pseudomonas aeruginosa MB-2835 in brain heart infusion broth (Difco). The challenge dose varied from about 11-50 LD50 's LD50 =median lethal dose, the dose that should kill 50% of the infected, untreated mice). Under these conditions, the infected, untreated mice died within 48 hours.
The antibiotics were administered as aqueous solutions by intraperitoneal or subcutaneous (s.c.) injection at 0 and 6 hours after infection. At least four different dose levels of the antibiotics were used; each dose group consisted of five mice. […] Statist. Assoc. 42: 282-296, 1947.
From rich cuts 1-9e described in Tables III and IV, a series of seven samples were prepared for in vivo evaluation. Sample composition as well as in vivo results are summarized in Table X. Carbenicillin and gentamicin were included as controls.

| Compound | s.c./i.p. ED50 administration ratio (Example A) | ED50 i.p. (Example A) | ED50 s.c. (Example A) | s.c./i.p. ED50 administration ratio (Example B) | ED50 i.p. (Example B) | ED50 s.c. (Example B) |
| --- | --- | --- | --- | --- | --- | --- |
| CC1(C)S[C@@H]2[C@H](NC(=O)C(C(=O)O)c3ccccc3)C(=O)N2[C@H]1C(=O)O (stereo partly drawn) [Carbenicillin] | 3.2 | 5.31 mg | 17.1 mg | 1.5 | 4.14 mg | 6.04 mg |
| Gentamicin | 23 | 0.013 mg | 0.30 mg | 20 | 0.0063 mg | 0.125 mg |
